# Measurements from BindingDB's records for patent US11174245 (Boehringer Ingelheim International, 2021).
# pIC50: −log10 of the molar value.
# Biological target: Epidermal growth factor receptor [695-1022,T790M,C797S,L858R] (Homo sapiens, UniProt P00533, C797S/L858R/T790M)
# Assay: Biochemical EGFR Inhibition Assays ([…])
# Set-up: 695-1022
# Protocol: 5 μL of EGFR enzyme form in assay buffer (50 mM HEPES pH 7.3, 10 mM MgCl2, 1 mM EGTA, 0.01% Tween 20, 2 mM DTT) are dispensed into columns 1-23, than 5 μL of ATP and ULight-poly-GT substrate (PerkinElmer; TRF0100-M) mix in assay buffer is added to all wells (final assay concentration of the ULight-poly-GT substrate 200 nM). Each of the different EGFR enzyme form assays is available at high ATP levels (final assay concentration 100 μM). After 90 minutes incubation at room temperature 5 μL EDTA (final assay concentration 50 mM) and LANCE Eu-anti-P-Tyr (PT66) antibody (PerkinElmer, AD0069) (final assay concentration 6 nM) mix are added to stop the reaction and start the binding of the antibody. […] Each plate contains 16 wells of a negative control (diluted DMSO instead of test compound; w EGFR enzyme form; column 23) and 16 wells of a positive control (diluted DMSO instead of test compound; w/o EGFR enzyme form; column 24). Negative and positive control values are used for normalization and IC50 values are calculated and analysed using a 4 parametric logistic model.
# Epidermal growth factor receptor [695-1022,T790M,C797S,L858R], sequence (P00533 695-1022 T790M/C797S/L858R): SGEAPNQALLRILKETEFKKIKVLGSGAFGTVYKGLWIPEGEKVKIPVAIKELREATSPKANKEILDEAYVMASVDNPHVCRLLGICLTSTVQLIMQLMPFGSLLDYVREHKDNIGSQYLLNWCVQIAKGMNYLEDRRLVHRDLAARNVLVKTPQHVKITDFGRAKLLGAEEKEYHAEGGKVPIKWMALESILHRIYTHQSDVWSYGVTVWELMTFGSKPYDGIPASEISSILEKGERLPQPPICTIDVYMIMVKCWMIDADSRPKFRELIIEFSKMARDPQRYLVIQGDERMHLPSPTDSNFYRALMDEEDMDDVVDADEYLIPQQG
compound,measurement,value
"COc1ccncc1-c1cc(C(=O)/N=c2\[nH]c3cc(C4CCN(C(C)=O)CC4)ccc3n2CC(C)(C)O)ccn1 [US11174245, # I-031]",pIC50,8.52
